Measurements from PubChem BioAssay AID2060906 (Molecular Pharmacology Branch, DTP, NCI, 2025).

Tested on: 485176-168-R4-J1-PDC complex spheroid growth
Test: Anticancer human tumor 485176-168-R4-J1-PDC patient-derived pancreatic adenocarcinoma cell line growth inhibition [RAS]
Conditions: for IC50: curve of first compound; for viability, T/C: stronger effect = lower value; active means viability on the fitted dose curve at most 10% of control; inactive means the rest
Method in brief: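 Tumour cells grown as complex spheroids with HUVEC endothelial cells and mesenchymal stem cells, treated with RAS pathway inhibitor combinations. Each agent spans half-log steps from near clinical Cmax, or 10 microM where Cmax is unknown.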

[1] = second compound 0.00316 µM, first compound 0.000949 µM
[2] = second compound 0.00316 µM, first compound 0.003 µM
[3] = second compound 0.00316 µM, first compound 0.00949 µM
[4] = second compound 0.00316 µM, first compound 0.03 µM
[5] = second compound 0.00316 µM, first compound 0.0949 µM
[6] = second compound 0.00316 µM, first compound 0.3 µM
[7] = second compound 0.01 µM, first compound 0.000949 µM
[8] = second compound 0.01 µM, first compound 0.003 µM
[9] = second compound 0.01 µM, first compound 0.00949 µM
[10] = second compound 0.01 µM, first compound 0.03 µM
[11] = second compound 0.01 µM, first compound 0.0949 µM
[12] = second compound 0.01 µM, first compound 0.3 µM
[13] = second compound 0.0316 µM, first compound 0.000949 µM
[14] = second compound 0.0316 µM, first compound 0.003 µM
[15] = second compound 0.0316 µM, first compound 0.00949 µM
[16] = second compound 0.0316 µM, first compound 0.03 µM
[17] = second compound 0.0316 µM, first compound 0.0949 µM
[18] = second compound 0.0316 µM, first compound 0.3 µM
[19] = second compound 0.1 µM, first compound 0.000949 µM
[20] = second compound 0.1 µM, first compound 0.003 µM
[21] = second compound 0.1 µM, first compound 0.00949 µM
[22] = second compound 0.1 µM, first compound 0.03 µM
[23] = second compound 0.1 µM, first compound 0.0949 µM
[24] = second compound 0.1 µM, first compound 0.3 µM
[25] = second compound 0.316 µM, first compound 0.000949 µM
[26] = second compound 0.316 µM, first compound 0.003 µM
[27] = second compound 0.316 µM, first compound 0.00949 µM
[28] = second compound 0.316 µM, first compound 0.03 µM
[29] = second compound 0.316 µM, first compound 0.0949 µM
[30] = second compound 0.316 µM, first compound 0.3 µM
[31] = second compound 1 µM, first compound 0.000949 µM
[32] = second compound 1 µM, first compound 0.003 µM
[33] = second compound 1 µM, first compound 0.00949 µM
[34] = second compound 1 µM, first compound 0.03 µM
[35] = second compound 1 µM, first compound 0.0949 µM
[36] = second compound 1 µM, first compound 0.3 µM
[37] = second compound 0.000949 µM, first compound 0.00316 µM
[38] = second compound 0.000949 µM, first compound 0.01 µM
[39] = second compound 0.000949 µM, first compound 0.0316 µM
[40] = second compound 0.000949 µM, first compound 0.1 µM
[41] = second compound 0.000949 µM, first compound 0.316 µM
[42] = second compound 0.000949 µM, first compound 1 µM
[43] = second compound 0.003 µM, first compound 0.00316 µM
[44] = second compound 0.003 µM, first compound 0.01 µM
[45] = second compound 0.003 µM, first compound 0.0316 µM
[46] = second compound 0.003 µM, first compound 0.1 µM
[47] = second compound 0.003 µM, first compound 0.316 µM
[48] = second compound 0.003 µM, first compound 1 µM
[49] = second compound 0.00949 µM, first compound 0.00316 µM
[50] = second compound 0.00949 µM, first compound 0.01 µM
[51] = second compound 0.00949 µM, first compound 0.0316 µM
[52] = second compound 0.00949 µM, first compound 0.1 µM
[53] = second compound 0.00949 µM, first compound 0.316 µM
[54] = second compound 0.00949 µM, first compound 1 µM
[55] = second compound 0.03 µM, first compound 0.00316 µM
[56] = second compound 0.03 µM, first compound 0.01 µM
[57] = second compound 0.03 µM, first compound 0.0316 µM
[58] = second compound 0.03 µM, first compound 0.1 µM
[59] = second compound 0.03 µM, first compound 0.316 µM
[60] = second compound 0.03 µM, first compound 1 µM
[61] = second compound 0.0949 µM, first compound 0.00316 µM
[62] = second compound 0.0949 µM, first compound 0.01 µM
[63] = second compound 0.0949 µM, first compound 0.0316 µM
[64] = second compound 0.0949 µM, first compound 0.1 µM
[65] = second compound 0.0949 µM, first compound 0.316 µM
[66] = second compound 0.0949 µM, first compound 1 µM
[67] = second compound 0.3 µM, first compound 0.00316 µM
[68] = second compound 0.3 µM, first compound 0.01 µM
[69] = second compound 0.3 µM, first compound 0.0316 µM
[70] = second compound 0.3 µM, first compound 0.1 µM
[71] = second compound 0.3 µM, first compound 0.316 µM
[72] = second compound 0.3 µM, first compound 1 µM
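Further: spheroids exposed to compounds for seven days before readout.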
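Wherever viability, T/C is given: luminescence viability expressed relative to DMSO vehicle wells set as 100%.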

CC1(C)CCC(Nc2ncc(C(F)(F)F)c(-c3c[nH]c4c(P(C)(C)=O)c(C#N)ccc34)n2)CN1 (stereo not drawn) + C=CC(=O)N1CCN(c2nc(OCC3CCCN3C)nc3c(F)c(-c4nc(N)cc(C)c4C(F)(F)F)c(Cl)cc23)C(C)C1
> 300 nM: IC50 (second compound 0.00316 µM) | IC50 (second compound 0.0316 µM)
43.1 nM: IC50 (second compound 0.316 µM)
inactive: viability, T/C [1] 116% | viability, T/C [2] 109% | viability, T/C [3] 85.6% | viability, T/C [4] 60% | viability, T/C [5] 46.2% | viability, T/C [6] 55.6% | viability, T/C [7] 122% | viability, T/C [8] 98.9% | viability, T/C [9] 75.7% | viability, T/C [10] 53.9% | viability, T/C [11] 48.4% | viability, T/C [12] 48.1% | viability, T/C [13] 100% | viability, T/C [14] 105% | viability, T/C [15] 81.5% | viability, T/C [16] 59.5% | viability, T/C [17] 51% | viability, T/C [18] 49.1% | viability, T/C [19] 102% | viability, T/C [20] 84.8% | viability, T/C [21] 80.4% | viability, T/C [22] 63.8% | viability, T/C [23] 47.2% | viability, T/C [24] 47.8% | viability, T/C [25] 92.7% | viability, T/C [26] 104% | viability, T/C [27] 81% | viability, T/C [28] 52% | viability, T/C [29] 52.1% | viability, T/C [30] 44.2% | viability, T/C [31] 108% | viability, T/C [32] 106% | viability, T/C [33] 82.8% | viability, T/C [34] 57% | viability, T/C [35] 52.2% | viability, T/C [36] 46.9%
94.4 nM: IC50 (second compound 1 µM)
133 nM: IC50 (second compound 0.1 µM)
80.8 nM: IC50 (second compound 0.01 µM)

CCc1c2c(nc3ccc(O)cc13)-c1cc3c(c(=O)n1C2)COC(=O)[C@]3(O)CC + C=CC(=O)N1CCN(c2nc(OCC3CCCN3C)nc3c(F)c(-c4nc(N)cc(C)c4C(F)(F)F)c(Cl)cc23)C(C)C1
16.6 nM: IC50 (second compound 0.316 µM)
11.1 nM: IC50 (second compound 0.0316 µM) | IC50 (second compound 1 µM)
13.3 nM: IC50 (second compound 0.00316 µM)
inactive: viability, T/C [1] 94.2% | viability, T/C [2] 79.2% | viability, T/C [3] 58.4% | viability, T/C [4] 31.9% | viability, T/C [5] 13.9% | viability, T/C [7] 94% | viability, T/C [8] 82.6% | viability, T/C [9] 60.6% | viability, T/C [10] 28.8% | viability, T/C [11] 12.5% | viability, T/C [13] 84.8% | viability, T/C [14] 97.8% | viability, T/C [15] 47.5% | viability, T/C [16] 27.8% | viability, T/C [17] 10.9% | viability, T/C [19] 81.3% | viability, T/C [20] 70.1% | viability, T/C [21] 54.1% | viability, T/C [22] 34.5% | viability, T/C [23] 11.2% | viability, T/C [25] 92.8% | viability, T/C [26] 82.4% | viability, T/C [27] 71.8% | viability, T/C [28] 27% | viability, T/C [29] 14% | viability, T/C [31] 95.9% | viability, T/C [32] 75% | viability, T/C [33] 58.7% | viability, T/C [34] 22.7% | viability, T/C [35] 10.5%
active: viability, T/C [6] 6.54% | viability, T/C [12] 6.49% | viability, T/C [18] 4.77% | viability, T/C [24] 6.91% | viability, T/C [30] 5.42% | viability, T/C [36] 6.39%
11.9 nM: IC50 (second compound 0.1 µM)
13.7 nM: IC50 (second compound 0.01 µM)

C=CC(=O)Nc1cc(Nc2nccc(-c3cn(C)c4ccccc34)n2)c(OC)cc1N(C)CCN(C)C + CCn1c(-c2cc(N3CCN(C)CC3)cnc2C(C)OC)c2c3cc(ccc31)-c1csc(n1)CC(NC(=O)C1CC1C)C(=O)N1CCCC(N1)C(=O)OCC(C)(C)C2
inactive: viability, T/C [37] 88.1% | viability, T/C [38] 91.4% | viability, T/C [39] 95.6% | viability, T/C [40] 89.9% | viability, T/C [41] 79.7% | viability, T/C [42] 69.4% | viability, T/C [43] 92.8% | viability, T/C [44] 80.3% | viability, T/C [45] 78.6% | viability, T/C [46] 76% | viability, T/C [47] 86.4% | viability, T/C [48] 60.5% | viability, T/C [49] 91.8% | viability, T/C [50] 93.3% | viability, T/C [51] 73.7% | viability, T/C [52] 94% | viability, T/C [53] 83.2% | viability, T/C [54] 62.9% | viability, T/C [55] 70% | viability, T/C [56] 87.7% | viability, T/C [57] 85.2% | viability, T/C [58] 90.6% | viability, T/C [59] 63.4% | viability, T/C [60] 57.9% | viability, T/C [61] 77.8% | viability, T/C [62] 83% | viability, T/C [63] 81.2% | viability, T/C [64] 61.9% | viability, T/C [65] 83.3% | viability, T/C [66] 64.3% | viability, T/C [67] 81.6% | viability, T/C [68] 72.9% | viability, T/C [69] 73.4% | viability, T/C [70] 84.2% | viability, T/C [71] 71.4% | viability, T/C [72] 50.2%
> 1000 nM: IC50 (second compound 0.000949 µM) | IC50 (second compound 0.003 µM) | IC50 (second compound 0.00949 µM) | IC50 (second compound 0.03 µM) | IC50 (second compound 0.0949 µM) | IC50 (second compound 0.3 µM)

O=C(c1ccc(F)c(F)c1Nc1ccc(I)cc1F)N1CC(O)([C@@H]2CCCCN2)C1 + CCn1c(-c2cc(N3CCN(C)CC3)cnc2C(C)OC)c2c3cc(ccc31)-c1csc(n1)CC(NC(=O)C1CC1C)C(=O)N1CCCC(N1)C(=O)OCC(C)(C)C2
33 nM: IC50 (second compound 0.00949 µM)
14.5 nM: IC50 (second compound 0.0949 µM)
116 nM: IC50 (second compound 0.000949 µM)
90.2 nM: IC50 (second compound 0.003 µM)
22.9 nM: IC50 (second compound 0.03 µM)
inactive: viability, T/C [37] 87.1% | viability, T/C [38] 62.7% | viability, T/C [39] 65.1% | viability, T/C [40] 51% | viability, T/C [41] 43.8% | viability, T/C [42] 34.1% | viability, T/C [43] 85.9% | viability, T/C [44] 75.5% | viability, T/C [45] 63.8% | viability, T/C [46] 48.5% | viability, T/C [47] 38.8% | viability, T/C [48] 35.2% | viability, T/C [49] 75.3% | viability, T/C [50] 56.6% | viability, T/C [51] 51.7% | viability, T/C [52] 45.9% | viability, T/C [53] 36.1% | viability, T/C [54] 35% | viability, T/C [55] 62.5% | viability, T/C [56] 59.3% | viability, T/C [57] 45.2% | viability, T/C [58] 38.8% | viability, T/C [59] 31.3% | viability, T/C [60] 31.4% | viability, T/C [61] 65.4% | viability, T/C [62] 56.9% | viability, T/C [63] 36.5% | viability, T/C [64] 37.2% | viability, T/C [65] 30.9% | viability, T/C [66] 25.7% | viability, T/C [67] 48.6% | viability, T/C [68] 44.4% | viability, T/C [69] 36.6% | viability, T/C [70] 28.6% | viability, T/C [71] 28.8% | viability, T/C [72] 25.9%
< 3.16 nM: IC50 (second compound 0.3 µM)
